From patent US8603493B2, “Carbosilane dendrimers, preparation method thereof and use of same” (Dendrico, S.L., priority 2005, dated 2013)

What was measured:
[1] = Dendrimer-drug binding test (polyacrylamide gel delay), methotrexate; details: dendrimer 100 μM, charge ratios 1+/1− to 8+/1−, 37° C., 1 hour
Description: (§1) The drugs chosen to perform the tests, all with at least one negative charge at physiological pH, were: • Methotrexate (sodium salt): • 1 charge (−) • Supplying laboratory: Almirall • Presentation: 25 mg/ml solution • Excipients: NaCl, NaOH, HCl, double-distilled H2O • Heparin (sodium salt) • Several charges (−) • Supplying laboratory: Rovi • Presentation: 10 mg/ml solution (1000 U) • Excipients: methyl p-oxybenzoate, propyl p-oxybenzoate, NaCl, double-distilled H2O • Insulin (recombinant human insulin) • 4 charges (−) • Supplying laboratory: Novo Nordisk • Product trade name: Actrapid • Presentation: 3.5 mg/ml solution (100 U) • Excipients: ZnCl2, HCl, NaOH, double-distilled H2O
(§2) The determination of the bond and complex formation between the dendrimer and the drug was performed by evaluating the delay in the polyacrylamide gel of the dendrimer bound to drug with respect to the free dendrimer: • Complex formation: It is performed in a final volume of the mixture of 30 μl, which is the maximum volume to load in the gel. To do this, one starts from the necessary quantity of dendrimer that provides a perfectly identifiable band by staining with silver nitrate in the gel once the electrophoresis has been carried out: 20 μl of a 100 μM solution, which corresponds to […] molecules. The drug is added in the 10 μl at different concentrations to produce the chosen (+) and (−) charge ratios, also determining the quantity of drug molecules present in the mixture. An incubation of said mixture was performed at 37° C. during 1 hour to give time for a more thermodynamically stable complex to form, although more time may be needed for its formation. Each complex is performed in duplicate. • Electrophoresis and gel staining: The gels used were 7.5% polyacrylamide/bisacrylamide, prepared with 1.5M Tris pH 8.8. Each electrophoresis was carried out at 90 volts during 4 hours, after which the gel was stained with silver nitrate and photographed. […]

[2] = Dendrimer-drug binding test (polyacrylamide gel delay), heparin; details: dendrimer 100 μM, heparin 10, 1, 0.5, 0.1 U, 37° C., 1 hour
Description: as §1, §2

[3] = molecular target: T1, Insulin (recombinant human insulin) (Homo sapiens, UniProt P01308); assay: Dendrimer-drug binding test (polyacrylamide gel delay), insulin; details: dendrimer 100 μM, insulin 1, 0.5, 0.1, 0.05 U, 37° C., 1 hour
T1 construct: Despite having its molecular weight (5825 g/mol) and establishing an average of 4 (−) charges; purchased Novo Nordisk Actrapid (trade name; no catalogue number given)
Description: as §1, §2

[4] = test system: HIVNL4.3; assay: HIV inhibition test in PBMC; type: cell-based; details: NN 1, 3 and 5 μM before or after infection, 0.4 MOI, 24 h
Description: The HIVNL4.3 virus strain was then added at a concentration of 1 particle per cell (1 MOI). The MT-2 and the virus were cultured during at least 2 hours at 37° C., stirring the culture every 15-30 minutes. Finally, the cultures (cells-virus) were washed twice to remove the virus which had not integrated in the cell genome. The cells were transferred and cultured in 25 cm^2 bottles in the same culture medium. […] All of them were placed in octuplicate and were maintained at 37° C. in CO2 atmosphere during a week. After this time, the titering was read by display of the cytopathic effect and […] formation. The titering was calculated by applying Spearman-Karber's formula^[30], which serves to quantify the number of particles of virus per ml of medium in a culture in which serial dilutions of the concentrate of virus to titer have been seeded in octuplicate. The PBMC were stimulated during 48 hours with 2 μg/ml of PHA and 100 IU of IL-2, to provoke a polyclonal activation; after 24 hours the cells were washed with PBS. […] The cultures were incubated at 37° C. and they were maintained in a humidified atmosphere with 5% CO2. […] To eliminate the influence of the possible toxicity of the dendrimer on the number of cells and the quantity of viral copies, the number of virus copies was adjusted to the percentage of live cells to be able to make comparisons between different dendrimer concentrations. […]

T1 sequence (P01308 25-54 limits assumed): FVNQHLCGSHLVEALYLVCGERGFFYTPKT
T1 sequence (P01308 90-110 limits assumed): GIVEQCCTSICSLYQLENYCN

SMILES	dendrimer-methotrexate complex formation (delay in gel) [1]	dendrimer-heparin complex formation (delay in gel) [2]	dendrimer-insulin complex formation (delay in gel) [3]	infection of PBMC by HIV (HIV DNA copies/10^6 cells adjusted to % live cells) [4]
C[N+](C)(C)CCO[Si](C)(CCC[Si](C)(CCC[Si](CCC[Si](C)(CCC[Si](C)(OCC[N+](C)(C)C)OCC[N+](C)(C)C)CCC[Si](C)(OCC[N+](C)(C)C)OCC[N+](C)(C)C)(CCC[Si](C)(CCC[Si](C)(OCC[N+](C)(C)C)OCC[N+](C)(C)C)CCC[Si](C)(OCC[N+](C)(C)C)OCC[N+](C)(C)C)CCC[Si](C)(CCC[Si](C)(OCC[N+](C)(C)C)OCC[N+](C)(C)C)CCC[Si](C)(OCC[N+](C)(C)C)OCC[N+](C)(C)C)CCC[Si](C)(OCC[N+](C)(C)C)OCC[N+](C)(C)C)OCC[N+](C)(C)C.[I-].[I-].[I-].[I-].[I-].[I-].[I-].[I-].[I-].[I-].[I-].[I-].[I-].[I-].[I-].[I-] [IM16, 2G-[Si(OCH2CH2NMe3^+I^−)2]8]	complex is not formed	complex is formed	complex is formed	
CN(CCO[Si](C)(C)CCC[Si](C)(CCC[Si](CCC[Si](C)(CCC[Si](C)(C)OCCN(C)CC[N+](C)(C)C)CCC[Si](C)(C)OCCN(C)CC[N+](C)(C)C)(CCC[Si](C)(CCC[Si](C)(C)OCCN(C)CC[N+](C)(C)C)CCC[Si](C)(C)OCCN(C)CC[N+](C)(C)C)CCC[Si](C)(CCC[Si](C)(C)OCCN(C)CC[N+](C)(C)C)CCC[Si](C)(C)OCCN(C)CC[N+](C)(C)C)CCC[Si](C)(C)OCCN(C)CC[N+](C)(C)C)CC[N+](C)(C)C.[I-].[I-].[I-].[I-].[I-].[I-].[I-].[I-] [NN, 2G-[Si(O(CH2)2N(Me)(CH2)2NMe3^+I^−)]8]	complex is formed	complex is formed	complex is formed	good capacity for preventing the infection of lymphocytes by the HIV virus
